Measured values reported in patent US20240076314A1 (priority 2020, published 2024).
Where a SMILES comes first, the peptide text is derived from it. Bridges are numbered along the chain shown (N, C = ends).

Target: human nAChR (hnAChR α1/β1/γ/ε-HEK 293 Recombinant Cell Line) (Homo sapiens, UniProt P02708+Q04844+Q07001)
Assay: cell-based

human nAChR (hnAChR α1/β1/γ/ε-HEK 293 Recombinant Cell Line), sequence (P02708 whole entry, looked up): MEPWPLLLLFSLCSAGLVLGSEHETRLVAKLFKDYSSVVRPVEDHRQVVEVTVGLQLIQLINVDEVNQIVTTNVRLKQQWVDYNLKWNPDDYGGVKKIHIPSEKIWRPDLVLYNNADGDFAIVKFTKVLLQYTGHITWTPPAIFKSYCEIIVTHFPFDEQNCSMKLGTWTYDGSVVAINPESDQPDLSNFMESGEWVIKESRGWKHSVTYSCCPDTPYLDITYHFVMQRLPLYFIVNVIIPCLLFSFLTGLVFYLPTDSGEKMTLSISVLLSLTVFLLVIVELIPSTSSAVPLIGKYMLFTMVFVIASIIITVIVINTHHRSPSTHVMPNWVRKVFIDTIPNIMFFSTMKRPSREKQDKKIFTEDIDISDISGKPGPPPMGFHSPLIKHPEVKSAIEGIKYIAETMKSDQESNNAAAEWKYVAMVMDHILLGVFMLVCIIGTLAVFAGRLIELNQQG
human nAChR (hnAChR α1/β1/γ/ε-HEK 293 Recombinant Cell Line), sequence (Q04844 whole entry, looked up): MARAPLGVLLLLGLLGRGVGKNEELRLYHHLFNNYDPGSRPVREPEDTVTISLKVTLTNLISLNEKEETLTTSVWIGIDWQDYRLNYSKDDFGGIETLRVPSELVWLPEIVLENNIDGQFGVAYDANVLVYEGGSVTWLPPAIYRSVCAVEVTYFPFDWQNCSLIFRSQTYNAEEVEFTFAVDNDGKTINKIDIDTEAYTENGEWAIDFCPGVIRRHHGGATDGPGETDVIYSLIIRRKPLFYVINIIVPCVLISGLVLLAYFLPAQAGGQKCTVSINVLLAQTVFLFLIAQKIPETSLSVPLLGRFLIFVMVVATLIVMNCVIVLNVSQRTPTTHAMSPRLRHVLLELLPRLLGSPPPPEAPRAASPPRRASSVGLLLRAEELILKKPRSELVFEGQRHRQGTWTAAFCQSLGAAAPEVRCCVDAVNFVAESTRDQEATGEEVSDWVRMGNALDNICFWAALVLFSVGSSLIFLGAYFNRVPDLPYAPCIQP
human nAChR (hnAChR α1/β1/γ/ε-HEK 293 Recombinant Cell Line), sequence (Q07001 whole entry, looked up): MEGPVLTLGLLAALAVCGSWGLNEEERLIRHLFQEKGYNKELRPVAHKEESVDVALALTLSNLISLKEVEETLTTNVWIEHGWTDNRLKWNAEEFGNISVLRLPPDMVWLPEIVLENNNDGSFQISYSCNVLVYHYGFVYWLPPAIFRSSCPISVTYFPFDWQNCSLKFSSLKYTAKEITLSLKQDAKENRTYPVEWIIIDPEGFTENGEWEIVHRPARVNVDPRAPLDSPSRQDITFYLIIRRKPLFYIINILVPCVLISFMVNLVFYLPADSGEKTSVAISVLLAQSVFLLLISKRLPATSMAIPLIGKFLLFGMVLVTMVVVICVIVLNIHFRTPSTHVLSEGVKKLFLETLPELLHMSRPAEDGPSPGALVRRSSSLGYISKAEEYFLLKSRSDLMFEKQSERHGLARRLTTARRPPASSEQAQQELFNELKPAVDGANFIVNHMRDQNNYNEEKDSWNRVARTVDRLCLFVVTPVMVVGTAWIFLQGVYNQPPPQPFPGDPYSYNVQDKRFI

Structure (SMILES) | IC50
CC(=O)N[C@H]1CSSC[C@@H]2NC(=O)[C@H](C)NC(=O)[C@@H]3CCCN3C(=O)[C@H](CC(N)=O)NC(=O)[C@H](CSSC[C@@H](C(N)=O)NC(=O)[C@H](CCCCN)NC(=O)[C@H](Cc3ccc(O)cc3)NC(=O)[C@H](CC(N)=O)NC(=O)[C@H](CCCCN)NC(=O)CNC2=O)NC1=O [SEQ ID NO: 62, Ac-Cys-Cys-Asn-Pro-Ala-Cys-Gly-Lys-Asn-Tyr-Lys-Cys-NH2] (Ac-CCNPACGKNYKC-NH2; disulfide 1-6, 2-12) | > 100 nM
CC(=O)N[C@H]1CSSC[C@@H]2NC(=O)[C@H](C)NC(=O)[C@@H]3CCCN3C(=O)[C@H](CC(N)=O)NC(=O)[C@H](CSSC[C@@H](C(N)=O)NC(=O)[C@H](CO)NC(=O)[C@H](Cc3ccc(O)cc3)NC(=O)[C@H](CC(N)=O)NC(=O)[C@H](CCCCN)NC(=O)CNC2=O)NC1=O [SEQ ID NO: 60, Ac-Cys-Cys-Asn-Pro-Ala-Cys-Gly-Lys-Asn-Tyr-Ser-Cys-NH2] (Ac-CCNPACGKNYSC-NH2; disulfide 1-6, 2-12) | > 100 nM
